Reference: patent US6180341A, “In vitro scanning saturation mutagenesis of proteins” (priority 1998, dated 2001)
Read-outs that look alike come from different tables or passages of the source.

What was measured:
[1] = tested on: anti-digoxin single chain Fv scFv(Dig) derived from anti-digoxin 26-10 murine monoclonal antibody, wild type (WT), SEQ ID NO:132; type: binding; settings: for kon: hapten-BSA conjugate immobilized on CM5 chip
Experimental: (§1) Single chain Fv mutants were produced and purified according to Burks (Burks and Iverson, 1995). The scFv genes from second round overlap extension PCR were ligated into pET25b plasmid and transformed into E. Coli BL21 (DE3) strain. Inclusion bodies that consist of scFvs were isolated from cell lysates and dissolved in 8 M urea. Soluble scFvs were purified by a metal chelating column (IMAC) and refolded by dialyzing against Tris buffer (50 mM Tris. HCl, pH 7.4, 500 mM KCl, 10% glycerol). Protein concentrations were determined by OD280 (Σ=44850) (Pace et al., 1995; Nieba et al., 1989). For the kinetics measurement, antibodies were further purified by a size exclusion gel filtration column Sepharose-75 (Pharmacia Biosensor AB, Sweden) to remove any dimeric or polymeric proteins.
(§2) The digoxin-BSA, digitoxin-BSA, digoxigenin-BSA and ouabain-BSA conjugates were immobilized on the surface of a sensor chip CM5 (approximately 400 RU) following the standard protocol from Pharmacia Biosensor. All kinetics experiments were performed in buffer containing 150 mM NaCl, 10 mM HEPES, 3.4 mM EDTA, and 0.005% P20, pH 7.4 at 25° C. with a flowrate of 60 μl/min (Myszka et al., 1997; Zeder-Lutz et al., 1997; Oddie et al., 1997). ScFv proteins over the concentration range of 25 nM to 400 nM were added to the chip for the association rate measurements. To prevent the rebinding of antibodies on the chip surface, soluble haptens (up to 1 mM) were added into elution buffer for the dissociation rate measurements (Schier et al., 1996). The antibody bound chip was regenerated by 50% ethylene glycol, pH 10. The values of association and dissociation rate of antibodies were calculated using BIAevaluation software from Pharmacia Biosensor. kon was determined from a plot of (ln(dR/dt))/t versus concentration (Karlson et al., 1991). koff was determined from a plot of ln(Ro/R) versus time.
(§3) In additional studies, values for the association and dissociation rate constants (kon and koff, respectively) were measured using a BIAcore 1000 for the wild-type and 14 selected mutant scFv antibodies. […] The selected scFv antibodies were expressed and purified following the procedure described by Burks and Iverson (1995). In each case, care was taken to insure that the kinetic values measured on the BlAcore are free of artifacts due to rebinding or avidity effects arising from multimeric scFvs.

[2] = tested on: anti-digoxin 26-10 scFv(Dig) variant HC100H (H:Trp-100→His); type: binding, murine; settings: for kon: hapten-BSA conjugate immobilized on CM5 chip
Experimental: as §1, §2, §3

[3] = tested on: anti-digoxin 26-10 scFv(Dig) variant HC100K (H:Trp-100→Lys); type: binding, murine; settings: for kon: hapten-BSA conjugate immobilized on CM5 chip
Experimental: as §1, §2, §3

[4] = tested on: anti-digoxin 26-10 scFv(Dig) variant HC100R (H:Trp-100→Arg); type: binding, murine; settings: for kon: hapten-BSA conjugate immobilized on CM5 chip
Experimental: as §1, §2, §3

[5] = tested on: anti-digoxin 26-10 scFv(Dig) variant HC50F (H:Tyr50→Phe); type: binding, murine; settings: for kon: hapten-BSA conjugate immobilized on CM5 chip
Experimental: as §1, §2, §3

[6] = tested on: anti-digoxin 26-10 scFv(Dig) variant HC9ST (heavy chain mutant); type: binding, murine; settings: for kon: hapten-BSA conjugate immobilized on CM5 chip
Experimental: as §1, §2, §3

[7] = tested on: anti-digoxin 26-10 scFv(Dig) variant LC94F (light chain residue 94→Phe); type: binding, murine; settings: for kon: hapten-BSA conjugate immobilized on CM5 chip
Experimental: as §1, §2, §3

[8] = tested on: anti-digoxin 26-10 scFv(Dig) variant LC94Y (L:Val-94→Tyr); type: binding, murine; settings: for kon: hapten-BSA conjugate immobilized on CM5 chip
Experimental: as §1, §2, §3

[9] = tested on: anti-digoxin 26-10 scFv(Dig) variant LC96F (L:Pro-96→Phe); type: binding, murine
Experimental: as §1, §2, §3

[10] = target: anti-digoxin 26-10 murine monoclonal antibody; settings: literature (Schildbach et al., 1993); cited from earlier work
[11] = SPR, hapten-BSA conjugate on chip, pH 7.4, 25° C.
[12] = SPR, hapten-BSA conjugate on chip, soluble hapten in elution buffer, pH 7.4, 25° C.

Row | SMILES | kon ([1]; SPR, pH 7.4, 25° C.) [M⁻¹ s⁻¹] | kon ([2]; SPR, pH 7.4, 25° C.) [M⁻¹ s⁻¹] | kon ([3]; SPR, pH 7.4, 25° C.) [M⁻¹ s⁻¹] | kon ([4]; SPR, pH 7.4, 25° C.) [M⁻¹ s⁻¹] | kon ([5]; SPR, pH 7.4, 25° C.) [M⁻¹ s⁻¹] | kon ([6]; SPR, pH 7.4, 25° C.) [M⁻¹ s⁻¹] | kon ([7]; SPR, pH 7.4, 25° C.) [M⁻¹ s⁻¹] | kon ([8]; SPR, pH 7.4, 25° C.) [M⁻¹ s⁻¹] | Ka [10] | koff [1, 12] | Ka [2, 11] [M⁻¹] | koff [2, 12] | koff [3, 12] | koff [4, 12] | koff [5, 12] | Ka [6, 11] [M⁻¹] | koff [6, 12] | koff [7, 12] | koff [8, 12] | koff [9, 12] | also measured
1 | C[C@H]1O[C@@H](O[C@H]2[C@@H](O)C[C@H](O[C@H]3[C@@H](O)C[C@H](O[C@H]4CC[C@@]5(C)[C@H](CC[C@@H]6[C@@H]5C[C@@H](O)[C@]5(C)[C@@H](C7=CC(=O)OC7)CC[C@]65O)C4)O[C@@H]3C)O[C@@H]2C)C[C@H](O)[C@@H]1O [Digoxin, digoxin] | 1.2e+08 | 1e+06 | 940000 | 1.3e+06 | 1.5e+06 | 1.4e+06 | 1.2e+06 | 1.2e+06 | approximately 9×10^9 M^-1 | – | – | – | – | – | – | – | – | – | – | – | koff ([1]; pH 7.4): 7.0 × 10^-4; koff ([2]; pH 7.4): 2.0 × 10^-3; koff ([3]; pH 7.4): 8.0 × 10^-2; koff ([4]; pH 7.4): 5.0 × 10^-3; koff ([5]; pH 7.4): 5.8 × 10^-4; koff ([6]; pH 7.4): 5.4 × 10^-3; koff ([7]; pH 7.4): 1.9 × 10^-3; koff ([8]; pH 7.4): 5.2 × 10^-3; kon ([9]; SPR, hapten-BSA conjugate immobilized on CM5 chip, pH 7.4, 25° C.): 1e+08 M⁻¹ s⁻¹; Ka [9, 11]: 500000 M⁻¹; koff ([9]; pH 7.4): 2
2 | C[C@H]1O[C@@H](O[C@H]2[C@@H](O)C[C@H](O[C@H]3[C@@H](O)C[C@H](O[C@H]4CC[C@@]5(C)[C@H](CC[C@@H]6[C@@H]5CC[C@]5(C)[C@@H](C7=CC(=O)OC7)CC[C@]65O)C4)O[C@@H]3C)O[C@@H]2C)C[C@H](O)[C@@H]1O [Digitoxin, digitoxin] | 1e+06 | – | – | 930000 | 960000 | 1e+06 | 1.3e+06 | 1.15e+06 | approximately 9×10^9 M^-1 | 1.3 × 10^-3 | 0 | 9.7 × 10^-3 | 0.09 | 8.2 × 10^-3 | 1.7 × 10^-3 | 9e+06 | 0.11 | 1.3 × 10^-3 | 2.7 × 10^-3 | 0.014 | Ka [3, 11]: 0 M⁻¹; Ka [9, 11]: 8.4e+07 M⁻¹
3 | C[C@]12CC[C@H](O)C[C@H]1CC[C@@H]1[C@@H]2C[C@@H](O)[C@]2(C)[C@@H](C3=CC(=O)OC3)CC[C@]12O [digoxigenin] | – | – | – | – | – | – | – | – | approximately 9×10^9 M^-1 | – | – | – | – | – | – | – | – | – | – | – | –
4 | C[C@@H]1O[C@@H](O[C@H]2C[C@@H](O)[C@]3(CO)[C@H]4[C@H](O)C[C@]5(C)[C@@H](C6=CC(=O)OC6)CC[C@]5(O)[C@@H]4CC[C@]3(O)C2)[C@H](O)[C@H](O)[C@H]1O [Ouabain, ouabain] | 1e+06 | 1e+06 | – | 1e+06 | 1e+06 | 100000 | 1e+06 | 1e+06 | – | 1.5 × 10^-2 | 1.1e+07 | 0.09 | 0.60 | 0.12 | 0.013 | 6.7e+06 | 0.12 | 1.0 × 10^-2 | 1.7 × 10^-2 | 0.3 | Ka [4, 11]: 8.3e+06 M⁻¹; Ka [5, 11]: 7.9e+07 M⁻¹; fold lower affinity than for digoxin, digitoxin and digoxigenin [10]: 42 fold
5 | C[C@]12CC[C@H](O)C[C@H]1CC[C@@H]1[C@@H]2CC[C@]2(C)[C@@H](C3=CC(=O)OC3)CC[C@]12O [Digitoxigenin] | 1e+06 | 1e+06 | 1e+06 | – | 1e+06 | – | 1e+06 | 1.1e+06 | – | 2.3 × 10^-2 | 1e+08 | 9.7 × 10^-2 | 1.48 | 1.7 × 10^-1 | 2.2 × 10^-2 | 7e+08 | 1.00 | 8.9 × 10^-2 | 1.8 × 10^-1 | 0.169 | Ka [4, 11]: 4.2e+07 M⁻¹; Ka [5, 11]: 4.5e+08 M⁻¹
